From publication PMC4703368, “A Conserved Interaction between a C-Terminal Motif in Norovirus VPg and the HEAT-1 Domain of eIF4G Is Essential for Translation Initiation” (PLoS Pathogens, 2016)

What was measured:
His-eIF4GI HEAT-1 [1] = test: cobalt affinity pull-down, SDS PAGE band quantification; conditions: parent: est. 100; read off a plot
His-eIF4GI HEAT-1 [2] = test: cobalt affinity pull-down, GST-VPg C-terminal fusions as prey (Fig 4B-E); assay type: binding, human; conditions: for % binding (relative to WT) / Bait/Prey / Prey/Bait: Figure 4E; for % binding (relative to WT): ImageJ quantification; for Bait/Prey / Prey/Bait: band density ratio, ImageJ; for binding to His-eIF4GI HEAT-1 in cobalt pull-down: bait 2.6 µM, GST-VPg fusions 1.5 µM; for binding to His-eIF4GI HEAT-1 in cobalt pull-down / binding to His-eIF4GI HEAT-1, % of wild-type: 25 mM MES, 150 mM NaCl, pH 6.5; for binding to His-eIF4GI HEAT-1, % of wild-type: quantification of pull-down, Fig 4E
[3] = system: His-tagged MNV VPg(1–124); test: cobalt affinity pull-down, eIF4GI HEAT-1 mutants as prey (Fig 5D-E)

Substance | percent of parent (% of WT (normalised OD ratio)) (His-eIF4GI HEAT-1 [1]) | % binding (relative to WT) (His-eIF4GI HEAT-1 [2]; repeat 1, 2014-07-24) [%] | Bait/Prey (His-eIF4GI HEAT-1 [2]; repeat 1, 2014-07-24) | Prey/Bait (His-eIF4GI HEAT-1 [2]; repeat 1, 2014-07-24) | % binding (relative to WT) (His-eIF4GI HEAT-1 [2]; repeat 2, 2014-07-25) [%] | Bait/Prey (His-eIF4GI HEAT-1 [2]; repeat 2, 2014-07-25) | Prey/Bait (His-eIF4GI HEAT-1 [2]; repeat 2, 2014-07-25) | % binding (relative to WT) (His-eIF4GI HEAT-1 [2]; repeat 3, 2014-07-25) [%] | Bait/Prey (His-eIF4GI HEAT-1 [2]; repeat 3, 2014-07-25) | Prey/Bait (His-eIF4GI HEAT-1 [2]; repeat 3, 2014-07-25) | % binding (relative to WT) (His-eIF4GI HEAT-1 [2]; repeat 4, 2014-07-31) [%] | Bait/Prey (His-eIF4GI HEAT-1 [2]; repeat 4, 2014-07-31) | Prey/Bait (His-eIF4GI HEAT-1 [2]; repeat 4, 2014-07-31) | binding to His-eIF4GI HEAT-1 in cobalt pull-down (His-eIF4GI HEAT-1 [2]) | other results
GST-MNV VPg(102–124) D110A | 75 | – | – | – | – | – | – | – | – | – | – | – | – | – | –
K120A | – | 102.078 | 2.664 | 0.3754 | 80.9274 | 2.258 | 0.4429 | 85.5916 | 2.092 | 0.478 | 78.1139 | 2.581 | 0.3874 | appears to bind as effectively as the wild-type sequence | % binding (relative to WT) (His-eIF4GI HEAT-1 [2]; repeat 7, 2015-08-05): 78.74%; Bait/Prey (His-eIF4GI HEAT-1 [2]; repeat 7, 2015-08-05): 4.118; Prey/Bait (His-eIF4GI HEAT-1 [2]; repeat 7, 2015-08-05): 0.2428
R113A | – | 63.4705 | 4.285 | 0.2334 | 60.4116 | 3.025 | 0.3306 | 58.2069 | 3.0762 | 0.3251 | 76.2941 | 2.643 | 0.3784 | capable of binding eIF4GI HEAT-1 | binding to His-eIF4GI HEAT-1, % of wild-type (His-eIF4GI HEAT-1 [2]): 60–80%
E913R | – | – | – | – | – | – | – | – | – | – | – | – | – | – | Relative density normalised to WT (%) ([3]; 150 mM NaCl, experiment 1): 72.7%; Relative density normalised to WT (%) ([3]; 150 mM NaCl, experiment 2): 89.6%; Relative density normalised to WT (%) ([3]; 150 mM NaCl, experiment 3): 82.8%; Relative density normalised to WT (%) ([3]; 300 mM NaCl, experiment 1): 49.0%; Relative density normalised to WT (%) ([3]; 300 mM NaCl, experiment 2): 56.0%
GST-MNV VPg(102–124) R113A | 64 | – | – | – | – | – | – | – | – | – | – | – | – | – | –
D110A | – | 71.5502 | 3.801 | 0.2631 | 69.0469 | 2.646 | 0.3779 | 77.4561 | 2.312 | 0.4326 | 83.3957 | 2.418 | 0.4136 | capable of binding eIF4GI HEAT-1 | binding to His-eIF4GI HEAT-1, % of wild-type (His-eIF4GI HEAT-1 [2]): 60–80%
GST-MNV VPg(102–124) V115A | 3 | – | – | – | – | – | – | – | – | – | – | – | – | – | –
GST-MNV VPg(102–124) F123A | 6 | – | – | – | – | – | – | – | – | – | – | – | – | – | –
GST-MNV VPg(102–124) K120A | 90 | – | – | – | – | – | – | – | – | – | – | – | – | – | –
